What was measured:
[1] = target: T1, IRAK4 (Homo sapiens, UniProt Q9NWZ3); test: 2-hour 10 μM ATP Biochemical Assay (MesoScale Detection format; IRAK4 phosphorylation of biotin labeled IRAK1 activation loop peptide); settings: 0.1 nM IRAK4
T1 sequence (Q9NWZ3 1-460): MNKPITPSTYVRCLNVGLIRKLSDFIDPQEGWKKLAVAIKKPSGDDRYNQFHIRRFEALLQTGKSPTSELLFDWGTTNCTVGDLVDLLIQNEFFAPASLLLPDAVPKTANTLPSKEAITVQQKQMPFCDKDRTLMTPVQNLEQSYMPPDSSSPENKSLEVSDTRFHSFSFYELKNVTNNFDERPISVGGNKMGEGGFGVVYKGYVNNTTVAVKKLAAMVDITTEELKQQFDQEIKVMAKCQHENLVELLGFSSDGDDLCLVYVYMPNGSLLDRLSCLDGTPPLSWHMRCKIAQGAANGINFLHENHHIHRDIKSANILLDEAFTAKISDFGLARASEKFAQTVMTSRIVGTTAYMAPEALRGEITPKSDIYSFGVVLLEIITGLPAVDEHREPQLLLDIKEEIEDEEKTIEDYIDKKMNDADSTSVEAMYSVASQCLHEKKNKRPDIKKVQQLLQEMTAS
Protocol: Compounds of the invention were assessed for their ability to inhibit IRAK4 activity. The inhibitory properties of the compounds of the invention described herein can be evidenced by testing in any one of the following assays.
The 2-hour 10 μM ATP Biochemical Assay employs a MesoScale Detection (MSD) format. The kinase reaction is based on the IRAK4 phosphorylation of a biotin labeled peptide (IRAK1 activation loop sequence 360-389).
The kinase reaction in 30 μl is carried out in wells of a 384 well polypropylene assay plate, with 0.1 nM IRAK4, 1.6 μM of biotinylated peptide substrate and 10 μM ATP in 50 mM Hepes, pH 7.5, 60 mM NaCl, 5 mM MgCl2, 0.25 mM MnCl2, 2 mM DTT, 0.01% BSA, and 1% DMSO (from compound DMSO stocks), for 2 hour at room temperature. The activity is quenched with 11 μl of 70 mM EDTA, pH 8.
To detect the phosphorylated biotinylated peptide substrate, 30 μl of the quenched reaction mixture is added to equivalent wells of a 384 well streptavidin coated MesoScale plate (Meso Scale Discovery #L21SA-1). After a 1 hour incubation of the plate for 1 hour at room temperature with gentle mixing, the plate wells are washed 3 times with 50 mM Tris, pH 7.5, 150 mM NaCl, 0.02% Tween-20.
A 25 μl volume of 1:500 anti-P-Threonine Rabbit polyclonal Antibody plus 1:500 Goat-anti-Rabbit Sulfo Tag Antibody (Meso Scale Discovery R32AB-1) in 50 mM Tris, pH 7.5, 150 mM NaCl, 0.02% Tween-20 plus 2% BSA is then added to each well. After a 1-hour incubation of the plate for 1 hour at room temperature with gentle mixing, the plate wells are washed, 3 times with 50 mM Tris, pH 7.5, 150 mM NaCl, 0.02% Tween-20. A 40 μl volume of 2× MSD Read Buffer (Meso Scale Discovery R92TC-1) is added to each well, and the plate is read immediately in an MSD Plate Reader (Meso Scale Discovery).

[2] = target: T1, IRAK4; test: biochemical
[3] = IRAK4 Biochemical Assay (1 mM ATP, 2 h) IC50 (μM), 1 mM ATP, 2 h, 100 pM IRAK4

Row | IC50 [1] | IC50 [2] | IC50 [2, 3] | SMILES
1 | 2 nM | – | 0.0048 µM | COc1cc2nc(C3CC4(CCOC4)C3)cn2cc1C(=O)Nc1cccc(C(F)(F)F)n1 (stereo not drawn) [Example 38]
2 | 9 nM | – | 0.0305 µM | COc1cc2nc(C3CC34CCOCC4)cn2cc1C(=O)Nc1cccc(C(F)(F)F)n1 (stereo not drawn) [Example 40]
3 | 2 nM | – | 0.0032 µM | COc1cc2nc(C3CCOC(C)(C)C3)cn2cc1C(=O)Nc1cccc(C(F)(F)F)n1 (stereo not drawn) [Example 43]
4 | 3 nM | – | 0.0088 µM | COc1cc2nc(C3CC4CCC(C3)O4)cn2cc1C(=O)Nc1cccc(C(F)(F)F)n1 (stereo not drawn) [Example 44]
5 | 13 nM | – | 0.0401 µM | COc1cc2nc(CC3CCOCC3)cn2cc1C(=O)Nc1cccc(C(F)(F)F)n1 [Example 45]
6 | 13 nM | – | 0.04 µM | COc1cc2nc(C3CCOCC3)cn2cc1C(=O)Nc1ccn(C(F)F)n1 [Example 48]
7 | 3 nM | 0.0092 µM | – | COc1cc2nc(C3CCOCC3)cn2cc1C(=O)Nc1cccc2c1CCC2 [Example 121]
8 | 15 nM | 0.0579 µM | – | COc1cc2nc(C3CCOCC3)cn2cc1C(=O)Nc1cccc(C(F)(F)CF)c1 [Example 122]
9 | 7 nM | 0.0251 µM | – | COc1cc2nc(C3CCOCC3)cn2cc1C(=O)Nc1cccc(Cl)c1 [Example 144]
10 | 8 nM | 0.0257 µM | – | COc1cc2nc(C3CCOCC3)cn2cc1C(=O)Nc1cccc(C(F)(F)F)c1 [Example 158]
11 | 2 nM | 0.0053 µM | – | COc1cc2nc(C3CCOCC3)cn2cc1C(=O)Nc1cccc(Cl)c1OC [Example 170]
12 | 4 nM | 0.0089 µM | – | COc1cc2nc(C3CCOCC3)cn2cc1C(=O)Nc1cccc2c1OCC2 [Example 179]

The next lines start with the compound.

Row | SMILES | IC50 [1] | IC50 [2] | IC50 [2, 3]
13 | COc1cccc(NC(=O)c2cn3cc(CC4CCOC4)nc3cc2OC)n1 (stereo not drawn) [Example 24] | 7 nM | 0.021 µM | –
14 | COc1cc2nc(C3C4COCC43)cn2cc1C(=O)Nc1cccc(C(F)(F)F)n1 (stereo not drawn) [Example 32] | 8 nM | 0.013 µM | –
15 | COc1cc2nc(CC3CCOC3)cn2cc1C(=O)Nc1cccc(C(F)(F)F)n1 (stereo not drawn) [Example 33] | 5 nM | 0.014 µM | –
16 | COc1cc2nc(C3CC(OC)C3)cn2cc1C(=O)Nc1cccc(C(F)(F)F)n1 (stereo not drawn) [Example 36] | 8 nM | – | 0.0262 µM
17 | COc1cc2nc(C34CC(C#N)(C3)C4)cn2cc1C(=O)Nc1cccc(C(F)(F)F)n1 [Example 37] | 9 nM | – | 0.0253 µM
18 | COc1cc2nc(C3CCC(OC)C3)cn2cc1C(=O)Nc1cccc(C(F)(F)F)n1 (stereo not drawn) [Example 41] | 5 nM | – | 0.0157 µM
19 | CCOc1cc2nc(C[C@@H]3CCOC3)cn2cc1C(=O)Nc1cccc(C(F)F)n1 [Example 65, N-[6-(difluoromethyl)-2-pyridyl]-7-ethoxy-2-[[(3R)-tetrahydrofuran-3-yl]methyl]imidazo[1,2-a]pyridine-6-carboxamide] | 1 nM | 0.0015 µM | –
20 | CCOc1cc2nc(C(C)(C)C#N)cn2cc1C(=O)Nc1cccc(C(F)F)n1 [Example 74] | 5 nM | 0.0134 µM | –
21 | COc1cc2nc(C3CCOCC3)cn2cc1C(=O)Nc1cccc2c1CCO2 [Example 107] | 13 nM | 0.04 µM | –
22 | COc1cc2nc(C3CCOCC3)cn2cc1C(=O)Nc1cccc2c1CCCC2 [Example 118] | 4 nM | 0.0174 µM | –
23 | COc1cc2nc(C3CCOCC3)cn2cc1C(=O)Nc1cccc(C(F)F)c1 [Example 125] | 4 nM | 0.0129 µM | –
24 | COc1cc2nc(C3CCOCC3)cn2cc1C(=O)Nc1cscc1C [Example 135] | 14 nM | 0.0645 µM | –
25 | COc1cc2nc(C3CCOCC3)cn2cc1C(=O)Nc1cccc(CF)c1 [Example 141] | 8 nM | 0.0245 µM | –
26 | COc1cc2nc(C3CCOCC3)cn2cc1C(=O)Nc1cccc(C(F)(F)F)c1C [Example 142] | 14 nM | 0.0383 µM | –
27 | COc1cc2nc(C3CCOCC3)cn2cc1C(=O)Nc1cccc(C)c1 [Example 143] | 10 nM | 0.0354 µM | –
28 | COc1cc2nc(C3CCOCC3)cn2cc1C(=O)Nc1cccc(C(C)(F)F)c1 [Example 145] | 13 nM | 0.0419 µM | –
29 | COc1cc2nc(C3CCOCC3)cn2cc1C(=O)Nc1ccccn1 [Example 146] | 9 nM | 0.0311 µM | –
30 | COc1cc2nc(C3CCOCC3)cn2cc1C(=O)Nc1ccccc1F [Example 147] | 10 nM | 0.0417 µM | –
31 | COc1cc2nc(C3CCOCC3)cn2cc1C(=O)Nc1cccc2c1OCCC2 [Example 162] | 1 nM | 0.0016 µM | –
32 | COc1cc2nc(C3CCOCC3)cn2cc1C(=O)Nc1ccccc1OC(C)C [Example 168] | 11 nM | 0.0378 µM | –
33 | COc1cc2nc(C3CCOCC3)cn2cc1C(=O)Nc1cc(F)cc(C(F)F)c1 [Example 169] | 12 nM | 0.0296 µM | –
34 | COc1cc2nc(C3CCOCC3)cn2cc1C(=O)Nc1cccc(F)c1Cl [Example 173] | 4 nM | 0.016 µM | –
35 | COc1cc2nc(C3CCOCC3)cn2cc1C(=O)Nc1cccc(Cl)c1C [Example 174] | 7 nM | 0.0477 µM | –
36 | COc1cc2nc(C3CCOCC3)cn2cc1C(=O)Nc1cccc(C(F)(F)F)n1 [Example 203] | 4 nM | 0.0096 µM | –

Reference: patent publication US20230087118A1, “IMIDAZO[1,2-a][sequence] DERIVATIVES AND THEIR USE IN THE TREATMENT OF DISEASE” (priority 2019, published 2023)
